Data published in patent US9271974B2, “Use of oxycodone for treating visceral pain” (PURDUE PHARMA L.P., priority 2005, dated 2016).

Legend:
Type in all cases: in vivo, human
cutaneous pain = test: Experimental cutaneous pain (pressure, electrical, thermal stimuli on skin) in healthy volunteers
Excerpt: (§1) The experimental studies referred to below, are based on a comparison of different drugs at healthy volunteers by applying experimental pain, since clinical studies provide insufficient information, partly due to the great difference that exists between patients and partly due to the fact that most diseases produce many symptoms other than pain, which affects the assessment of pain-killing efficacy. Experimental pain can be administered under controlled conditions in healthy volunteers so that this bias can be avoided. However, several experimental stimuli are necessary to simulate the complex clinical situation. It is also necessary to use different opioids to obtain sufficient differentiated knowledge about deep pain on different pain mechanisms, and an assessment of the clinical action spectrum of opioids. For testing the efficacy of different opioids for treating visceral pain a standardized test battery of cutaneous, muscular and visceral stimuli was applied. Blood samples were taken for determination of the opioid concentration in plasma.
(§2) In recent years methods by which deep and visceral stimuli can be administered reproducibly have been developed. These methods allow activation of the pain system with different stimuli, with the possibility of activating various types of nerve pathways in the same experiment. […]

muscular pain = test: Experimental muscular pain (pressure, electrical stimuli in muscle) in healthy volunteers; details: for analgesic effect in muscle versus placebo: oral solution, morphine 30 mg, oxycodone 15 mg, FIG. 1
Excerpt: as §1
In recent years methods by which deep and visceral stimuli can be administered reproducibly have been developed. These methods allow activation of the pain system with different stimuli, with the possibility of activating various types of nerve pathways in the same experiment. In the trial described herein the efficacy of different opioids on different types of stimuli of skin, muscles and bowel in healthy volunteers have been compared. Cutaneous and muscular pain was administered by pressure, current and temperature (skin only). The stimulation of the internal organs was also produced by pressure via a balloon located at the bottom of the oesophagus. The balloon can be distended and produce mechanical stimuli, which feel like mild pain/discomfort. In addition, cold and heat stimuli can be administered by passing water of differing temperature through the balloon. […]

visceral pain [1] = test: Experimental visceral pain, mechanical stimulation of the oesophagus via balloon distension, in healthy volunteers
Excerpt: as §1, §2

visceral pain [2] = test: Experimental visceral pain, heat stimulation of the oesophagus via hot water into the balloon, in healthy volunteers
Excerpt: as §1, §2

[3] = oral, morphine 30 mg vs oxycodone 15 mg, all modalities tested
[4] = oral oxycodone 15 mg vs morphine 30 mg and placebo, FIG. 2

COc1ccc2c3c1O[C@H]1C(=O)CC[C@@]4(O)[C@@H](C2)N(C)CC[C@]314 [oxycodone]
analgesic effect in the skin versus placebo (cutaneous pain; oral solution, morphine 30 mg, oxycodone 15 mg, FIG. 1): significantly more analgesic than placebo | difference in analgesic effect between morphine and oxycodone in the skin (cutaneous pain; [3]): no significant difference between morphine and oxycodone | analgesic effect in muscle versus placebo (muscular pain): significantly more analgesic than placebo | difference in analgesic effect between morphine and oxycodone in muscle (muscular pain; [3]): no significant difference between morphine and oxycodone | analgesic effect against mechanical stimulation in viscera (oesophagus), in comparison to morphine and placebo (visceral pain [1]; [4]): significantly better analgesic effect | analgesia against heat pain stimulation in viscera (oesophagus), in comparison to morphine and placebo (visceral pain [2]; [4]): significantly greater analgesia

CN1CC[C@]23c4c5ccc(O)c4O[C@H]2[C@@H](O)C=C[C@H]3[C@H]1C5 [morphine]
analgesic effect in muscle versus placebo (muscular pain): significantly more analgesic than placebo | analgesic effect against mechanical stimulation in viscera (oesophagus), in comparison to placebo (visceral pain [1]; oral morphine 30 mg vs placebo): a certain analgesic effect | analgesic effect against heat pain stimulation in viscera (oesophagus), in comparison to placebo (visceral pain [2]; oral morphine 30 mg vs placebo): a certain analgesic effect
